Values of other authors as cited in patent US20110313054A1, “BRANCHED COPOLYMERS, COMPOSITION AND USES” (Unilever PLC, priority 2009, published 2011).

Settings: in water at 20° C.

SMILES | Solubility in water w/w at 20° C.
C=CC(=O)OCCO [2-Hydroxyethyl acrylate] | soluble
C=C(C)C(=O)OCCO [2-Hydroxyethyl methacrylate] | 3.00 w/w
C=CC(=O)OCC(C)O (centres unmarked) [2-Hydroxypropyl acrylate] | Soluble
C=C(C)C(=O)OCC(C)O (centres unmarked) [2-Hydroxypropyl methacrylate] | 2.17 w/w
C=C(C)C(=O)O [Methacrylic acid] | Soluble
